From PubChem BioAssay (NCI)
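Assay format: 96-well plates, 48-hour exposure. At the GI50, growth is halved. At the TGI there is no net growth.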

Experiments:
Experiment in all cases: NCI-60 cell line screen, 48 h
EKVX NSCLC = test system: EKVX NSCLC
NCI-H226 lung = test system: NCI-H226 lung
LOX IMVI melanoma = test system: LOX IMVI melanoma
SK-MEL-5 melanoma = test system: SK-MEL-5 melanoma
786-0 renal = test system: 786-0 renal
UACC-62 melanoma = test system: UACC-62 melanoma
SNB-75 CNS = test system: SNB-75 CNS
NCI-H522 lung = test system: NCI-H522 lung
HOP-62 NSCLC = test system: HOP-62 NSCLC
MCF7 breast = test system: MCF7 breast

Structure (SMILES)	GI50 (EKVX NSCLC) [µM]	TGI (EKVX NSCLC) [µM]	GI50 (NCI-H226 lung) [µM]	TGI (NCI-H226 lung) [µM]	GI50 (LOX IMVI melanoma) [µM]	TGI (LOX IMVI melanoma) [µM]	GI50 (SK-MEL-5 melanoma) [µM]	TGI (SK-MEL-5 melanoma) [µM]	GI50 (786-0 renal) [µM]	TGI (786-0 renal) [µM]	GI50 (UACC-62 melanoma) [µM]	TGI (UACC-62 melanoma) [µM]	GI50 (SNB-75 CNS) [µM]	TGI (SNB-75 CNS) [µM]	GI50 (NCI-H522 lung) [µM]	TGI (NCI-H522 lung) [µM]	GI50 (HOP-62 NSCLC) [µM]	TGI (HOP-62 NSCLC) [µM]	GI50 (MCF7 breast) [µM]	TGI (MCF7 breast) [µM]
N#CC1(c2ccc(NC(=O)c3cccnc3NCc3ccncc3)cc2)CCCC1	11.8	> 100	12.3	75.1	14.3	29.2	4.96	18	14.5	49.6	8.02	23.9	8.08	56.7	7.6	35.1	22.4	84.9	10.6	49.5
CC(Br)C(=O)NC(CO)C(=O)O (centres undefined)		> 100		> 100		> 100		> 100		> 100		> 100		> 100		> 100		> 100		> 100
O=C1/C(=C\c2ccccc2)CN(C(=O)CCN2CCCCC2)C/C1=C/c1ccccc1		10.6		16.5		0.842		3.3		4.7		3.08		6.79		2.31		25.7		1.86
CC1=C(C(=O)Nc2ccccc2)C(c2ccc(N(C)C)cc2)C(C(=O)Nc2ccccc2)=C(C)N1		> 100		> 100		> 100		7.98		> 100		23.9		> 100		81.2		24.2		> 100
CC(C)(CO)CNC(=O)c1ccc2[nH]c(O)c(N=Nc3ccc(S(N)(=O)=O)cc3)c2c1	> 25	> 25	> 25	> 25	> 25	> 25	> 25	> 25	> 25	> 25	> 25	> 25	> 25	> 25	> 25	> 25	> 25	> 25	> 25	> 25
CN[C@@H](C)C(=O)N[C@H]1CN(S(=O)(=O)c2cccc(S(=O)(=O)N3CC[C@H]4CC[C@@H](C(=O)NC(c5ccccc5)c5ccccc5)N4C(=O)[C@@H](NC(=O)[C@H](C)NC)C3)c2)CC[C@H]2CC[C@@H](C(=O)NC(c3ccccc3)c3ccccc3)N2C1=O	25.2	> 74	28.9	> 100	14.8	36.5	9.56	34.3	20	43.8	18	38.9		0.721	2.43	34.8	5.14	> 100	6.93	29.2
COc1ccc2c(c1)c(-c1nc(-c3c[nH]c4ncccc34)cs1)cn2CCCN1CCOCC1	3.01	16.8	3.1	15.9	1.74	3.27	1.83	3.35	1.74	3.44	1.97	4.32	1.27	3.4	2.07	6.03	2.24	7.18	1.43	8.83
COc1ccc2c(N)ncc(C#Cc3cc(C(=O)Nc4ccc(CN5CCN(C)CC5)c(C(F)(F)F)c4)cnc3C)c2c1	5.11	19	1.27	9.5	0.505	1.08	1.86	5.32	0.673	1.25	1.3	5.92	0.729	4.38	0.571	1.2	4.36	33.2	0.745	2.63
CN(C)CCCC1(c2ccc(F)cc2)OCc2cc(-c3cccc4[nH]ccc34)ccc21 (centres undefined)	1.78	3.3	1.76	3.52	1.71	3.2	1.75	3.17	1.63	3.24	1.76	3.23	1.27	3.37	1.59	3.22	1.5	2.89	1.55	3.25
Cc1ccc(O)cc1Nc1ccnc2ccc(S(C)(=O)=O)cc12	11.9	> 25	5.05	> 23.6	0.516	3.89	10.4	> 25	1.87	> 25	0.843	10.4	0.106	1.28	5.08	> 22.1	2.35	> 25	> 25	> 25
CCCCCOc1ccc(/C=N/Nc2cc(C)nc3ccc(Cl)cc23)cc1	1.67	3.07	1.64	3.68	1.69	3.15	1.63	3.01	1.78	3.32	1.68	3.15	1.63	3.22	1.63	3.08	1.62	3.29	1.64	3.4
C[C@]12CC[C@H]3[C@@H](CCC4=CC(=O)CC[C@@]43C)[C@@H]1CC[C@@H]2c1csc(N)n1	1.12	8.39	4.61	23.7	3.38	15.9	1.69	5.41	10.7	33.4	2.68	17.8	8.62	24.2	7.18	24.9	6.56	23.7	3.42	15.5
COc1ccc(C(=O)c2cc(OC)c(OC)c(OC)c2OC)cc1O	28.6	> 100	20.5	> 100	4.95	> 100	2.93	> 100	4.35	> 100	4.3	> 100	1.69	5.77	2.37	7.44	4.14	> 100	3.83	> 100
